Reference: publication PMC8928484 (Journal of the American Chemical Society, 2022)
Read-outs that look alike come from different tables or passages of the source.

Legend:
FEM1B [1] = biological target: T1, FEM1B (Mus musculus, UniProt Q9Z2G0); test: competitive fluorescence polarization with TAMRA-FNIP1 degron; type: binding
FEM1B [2] = biological target: T1, FEM1B; test: as above; type: binding; remark: listed apart in the source

T1 sequence (Q9Z2G0 whole entry): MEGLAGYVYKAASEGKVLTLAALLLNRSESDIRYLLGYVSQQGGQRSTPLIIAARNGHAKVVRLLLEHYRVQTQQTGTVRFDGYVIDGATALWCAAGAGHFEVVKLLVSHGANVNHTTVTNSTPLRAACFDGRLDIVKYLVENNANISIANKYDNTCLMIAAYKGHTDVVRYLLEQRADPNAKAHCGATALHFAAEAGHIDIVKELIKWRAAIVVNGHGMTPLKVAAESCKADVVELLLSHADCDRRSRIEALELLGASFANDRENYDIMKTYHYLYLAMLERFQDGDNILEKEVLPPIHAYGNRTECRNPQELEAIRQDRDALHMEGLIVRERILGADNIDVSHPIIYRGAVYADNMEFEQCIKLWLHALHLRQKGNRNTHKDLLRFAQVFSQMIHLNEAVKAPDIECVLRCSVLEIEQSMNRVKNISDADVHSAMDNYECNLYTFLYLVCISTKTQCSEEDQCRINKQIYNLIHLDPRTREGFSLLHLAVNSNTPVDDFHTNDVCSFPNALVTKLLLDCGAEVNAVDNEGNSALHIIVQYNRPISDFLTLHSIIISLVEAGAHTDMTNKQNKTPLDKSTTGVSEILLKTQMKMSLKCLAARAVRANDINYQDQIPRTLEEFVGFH

Compound	IC50 (FEM1B [1]) [nM]	IC50 (FEM1B [2]) [nM]
NJH-1-106	1500	
C#CCCCC(=O)N1CCOc2cc(N(CCC#N)C(=O)CCl)ccc21 [NJH-2-030]		670
